Biological target: T1, MLLT1 (Homo sapiens, UniProt Q03111)
T1 sequence (Q03111 1-559): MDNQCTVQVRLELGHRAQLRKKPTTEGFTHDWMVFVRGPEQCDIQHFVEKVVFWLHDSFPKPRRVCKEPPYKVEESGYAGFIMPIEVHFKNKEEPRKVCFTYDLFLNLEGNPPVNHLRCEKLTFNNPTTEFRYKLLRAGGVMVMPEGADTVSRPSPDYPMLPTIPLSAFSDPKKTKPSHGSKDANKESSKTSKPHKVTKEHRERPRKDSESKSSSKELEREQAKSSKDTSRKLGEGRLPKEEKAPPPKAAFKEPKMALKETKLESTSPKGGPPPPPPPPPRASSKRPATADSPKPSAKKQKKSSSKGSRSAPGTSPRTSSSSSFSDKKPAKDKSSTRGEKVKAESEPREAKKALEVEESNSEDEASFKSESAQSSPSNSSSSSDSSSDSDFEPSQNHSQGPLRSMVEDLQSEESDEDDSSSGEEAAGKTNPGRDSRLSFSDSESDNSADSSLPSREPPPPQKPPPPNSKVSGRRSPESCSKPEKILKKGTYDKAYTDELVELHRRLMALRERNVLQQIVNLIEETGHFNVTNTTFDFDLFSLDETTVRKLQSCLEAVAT
Experiment: MLLT1 degradation assay in MV4-11 cells (JESS, 24 h)
Type: cell-based
Design: endogenous in cells; host or cells: MV4-11 (ATCC CRL-9591)
Conditions: vs DMSO control
Outline: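 MV4-11 cells treated at 1000, 100 and 10 nM (0.1% DMSO) for 24 h at 37° C; lysates (4 ug protein) run on JESS capillary immunoassay with MLLT1 and GAPDH antibodies. Peak areas give % degradation versus DMSO, binned A (≥75%) to D (<25%).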

Cc1nn(CCCCCCCC#Cc2cccc3c2CN(C2CCC(=O)NC2=O)C3=O)c2cc(C(=O)Nc3cc4[nH]c([C@H]5CCCN5C)cc4cn3)ccc12 (mixture of isomers) [Example 1, 1-(9-(2-(2,6-dioxopiperidin-3-yl)-1-oxoisoindolin-4-yl)non-8-yn-1-yl)-3-methyl-N-(2-((R)-1-methylpyrrolidin-2-yl)-1H-pyrrolo[3,2-c]pyridin-6-yl)-1H-indazole-6-carboxamide]
A (Category A: A≥75% degradation): MLLT1% Degradation @ 0.01 μM (0.01 μM) | MLLT1% Degradation @ 0.1 μM (0.1 μM) | MLLT1% Degradation @ 1 μM (1 μM)

Source: US20260199484A1, “PROTAC DEGRADERS OF MLLT1 AND/OR MLLT3” (DARK BLUE THERAPEUTICS LTD, priority 2024, published 2026)
